Test results as given in US20020137929A1, “1 - (3-heterocyclylphenyl) isothiourea, -isourea, -guanidine and -amidine herbicidal agents” (Intellectual Property Department, BASF Aktiengesellschaft, priority 1998, published 2002).

Columns and labels:
[1] = system: ECHORC (Watergrass (Calif.)); assay: Postemergence weed control under flooded paddy conditions; assay type: in vivo, Echinochloa oryzoides; conditions: postemergence weeds, 3-4 weeks after treatment
How it was run: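 With weeds 3 to 5 cm tall and rice at the 1.5 to 2.5 leaf stage, containers were flooded and water held 1.5 to 3 cm above soil. Compounds in 50/50 v/v aqueous/acetone went into the flood water at about 0.0313 to 0.500 kg/ha a.i. Effects were visually rated 0–9 against controls after three to four weeks in the greenhouse.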

[2] = system: ECHCG (Barnyardgrass); assay: Preemergence herbicidal evaluation; assay type: in vivo, Echinochloa crus-galli; conditions: rated 4-5 weeks after treatment
How it was run: (§1)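 Seeds were planted in potting soil in cups, then sprayed preemergence with the test compound in aqueous acetone at about 0.0156 to 0.500 kg per hectare. Cups were kept under greenhouse conditions and visually rated 4–5 weeks after treatment on a 0–9 scale against an untreated control.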

[3] = system: IPOHE (Morningglory, Ivyleaf); assay: Preemergence herbicidal evaluation; assay type: in vivo, Ipomoea hederacea; conditions: rated 4-5 weeks after treatment
How it was run: as §1

[4] = system: ZEAMX (Corn, Field); assay: Preemergence herbicidal evaluation; assay type: in vivo, Zea mays; conditions: rated 4-5 weeks after treatment
How it was run: as §1

[5] = system: IPOHE (Morningglory, Ivyleaf); assay: Postemergence herbicidal evaluation; assay type: in vivo, Ipomoea hederacea; conditions: postemergence
How it was run: (§2)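 Compound is applied as a foliar spray to seedlings about two weeks old, formulated in equal parts acetone and water with 0.5% TWEEN 20 and delivered at 40 psi to give about 0.0156–0.500 kg per hectare. Injury is rated visually 0–9 after four to five weeks.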

[6] = system: CASOB (Sicklepod); assay: Preemergence herbicidal evaluation; assay type: in vivo, Cassia obtusifolia; conditions: rated 4-5 weeks after treatment
How it was run: as §1

[7] = system: AMBEL (Ragweed, Common); assay: Postemergence herbicidal evaluation; assay type: in vivo, Ambrosia artemisifolia; conditions: postemergence
How it was run: as §2

[8] = system: ECHCG (Barnyardgrass); assay: Postemergence herbicidal evaluation; assay type: in vivo, Echinochloa crus-galli; conditions: postemergence
How it was run: as §2

[9] = system: SETVI (Foxtail, Green); assay: Postemergence herbicidal evaluation; assay type: in vivo, Setaria viridis; conditions: postemergence
How it was run: as §2

[10] = system: ABUTH (Velvetleaf); assay: Postemergence herbicidal evaluation; assay type: in vivo, Abutilon theophrasti; conditions: postemergence
How it was run: as §2

[11] = system: CHEAL (Lambsquarters, Common); assay: Preemergence herbicidal evaluation; assay type: in vivo, Chenopodium album; conditions: rated 4-5 weeks after treatment
How it was run: as §1

[12] = system: TRZAWR (Wheat, Winter, cv Riband); assay: Postemergence herbicidal evaluation; assay type: in vivo, Triticum aestivum; conditions: postemergence
How it was run: as §2

[13] = system: GALAP (Galium); assay: Preemergence herbicidal evaluation; assay type: in vivo, Galium aparine; conditions: rated 4-5 weeks after treatment
How it was run: as §1

[14] = system: GLXMAW (Soybean, Williams); assay: Postemergence herbicidal evaluation; assay type: in vivo, Glycine max, (L.) Merr. cv Williams; conditions: postemergence
How it was run: as §2

CCOC(=O)CN1C(=O)C(=C2CCCC2)SC1=Nc1cc(-n2c(=O)cc(C(F)(F)F)n(C)c2=O)c(F)cc1Cl [Compound 18, Ethyl 2-{{2-chloro-5-[3,6-dihydro-3-methyl-2,6-dioxo-4-(trifluoromethyl)-1(2H)-pyrimidinyl]-4-fluorophenyl}imino}-5-cyclopentylidene-4-oxo-3-thiazolidineacetate]
Herbicidal rating ECHORC ([1]; rate 0.1160 kg/ha): 7.0
Herbicidal rating ECHORC ([1]; rate 0.2310 kg/ha): 7.0
Herbicidal rating ECHORC ([1]; rate 0.4630 kg/ha): 7.0
ECHCG preemergence herbicidal rating ([2]; rate 0.1250 kg/ha): 0.0
ECHCG preemergence herbicidal rating ([2]; rate 0.2500 kg/ha): 0.0
IPOHE preemergence herbicidal rating ([3]; rate 0.1250 kg/ha): 0.0
IPOHE preemergence herbicidal rating ([3]; rate 0.2500 kg/ha): 1.0
ZEAMX preemergence herbicidal rating ([4]; rate 0.1250 kg/ha): 0.0
ZEAMX preemergence herbicidal rating ([4]; rate 0.2500 kg/ha): 0.0
IPOHE herbicidal rating ([5]; rate 0.0158 kg/ha): 2.0
IPOHE herbicidal rating ([5]; rate 0.0315 kg/ha): 6.0
IPOHE herbicidal rating ([5]; rate 0.0630 kg/ha): 9.0
CASOB preemergence herbicidal rating ([6]; rate 0.1250 kg/ha): 0.0
CASOB preemergence herbicidal rating ([6]; rate 0.2500 kg/ha): 0.0
AMBEL herbicidal rating ([7]; rate 0.0158 kg/ha): 4.0
AMBEL herbicidal rating ([7]; rate 0.0315 kg/ha): 9.0
AMBEL herbicidal rating ([7]; rate 0.0630 kg/ha): 7.0
ECHCG herbicidal rating ([8]; rate 0.0158 kg/ha): 1.0
ECHCG herbicidal rating ([8]; rate 0.0315 kg/ha): 1.0
ECHCG herbicidal rating ([8]; rate 0.0630 kg/ha): 2.0
SETVI herbicidal rating ([9]; rate 0.0158 kg/ha): 0.0
SETVI herbicidal rating ([9]; rate 0.0315 kg/ha): 1.0
SETVI herbicidal rating ([9]; rate 0.0630 kg/ha): 6.0
ABUTH herbicidal rating ([10]; rate 0.0158 kg/ha): 9.0
ABUTH herbicidal rating ([10]; rate 0.0315 kg/ha): 9.0
ABUTH herbicidal rating ([10]; rate 0.0630 kg/ha): 9.0
CHEAL preemergence herbicidal rating ([11]; rate 0.1250 kg/ha): 8.0
CHEAL preemergence herbicidal rating ([11]; rate 0.2500 kg/ha): 9.0
TRZAWR herbicidal rating ([12]; rate 0.0158 kg/ha): 2.5
TRZAWR herbicidal rating ([12]; rate 0.0315 kg/ha): 3.0
TRZAWR herbicidal rating ([12]; rate 0.0630 kg/ha): 3.0
GALAP preemergence herbicidal rating ([13]; rate 0.1250 kg/ha): 0.0
GALAP preemergence herbicidal rating ([13]; rate 0.2500 kg/ha): 9.0
GLXMAW herbicidal rating ([14]; rate 0.0158 kg/ha): 3.5
GLXMAW herbicidal rating ([14]; rate 0.0315 kg/ha): 3.5
GLXMAW herbicidal rating ([14]; rate 0.0630 kg/ha): 3.5

CCOC(=O)CN1C(=O)C(=C(C)C)S/C1=N/c1cc(-n2c(=O)cc(C(F)(F)F)n(C)c2=O)c(F)cc1Cl [Compound 20, Ethyl 2-{{2-chloro-5-[3,6-dihydro-3-methyl-2,6-dioxo-4-(trifluoromethyl)-1(2H)-pyrimidinyl]-4-fluorophenyl}imino}-5-isopropylidene-4-oxo-3-thiazolidineacetate]
Herbicidal rating ECHORC ([1]; rate 0.1160 kg/ha): 7.0
Herbicidal rating ECHORC ([1]; rate 0.2310 kg/ha): 7.0
Herbicidal rating ECHORC ([1]; rate 0.4630 kg/ha): 7.0
ECHCG preemergence herbicidal rating ([2]; rate 0.0625 kg/ha): 0.0
ECHCG preemergence herbicidal rating ([2]; rate 0.1250 kg/ha): 0.0
ECHCG preemergence herbicidal rating ([2]; rate 0.2500 kg/ha): 0.0
IPOHE preemergence herbicidal rating ([3]; rate 0.0625 kg/ha): 0.0
IPOHE preemergence herbicidal rating ([3]; rate 0.1250 kg/ha): 0.0
IPOHE preemergence herbicidal rating ([3]; rate 0.2500 kg/ha): 2.0
ZEAMX preemergence herbicidal rating ([4]; rate 0.0625 kg/ha): 0.0
ZEAMX preemergence herbicidal rating ([4]; rate 0.1250 kg/ha): 0.0
ZEAMX preemergence herbicidal rating ([4]; rate 0.2500 kg/ha): 0.0
IPOHE herbicidal rating ([5]; rate 0.0158 kg/ha): 9.0
IPOHE herbicidal rating ([5]; rate 0.0315 kg/ha): 3.0
IPOHE herbicidal rating ([5]; rate 0.0630 kg/ha): 9.0
CASOB preemergence herbicidal rating ([6]; rate 0.0625 kg/ha): 0.0
CASOB preemergence herbicidal rating ([6]; rate 0.1250 kg/ha): 0.0
CASOB preemergence herbicidal rating ([6]; rate 0.2500 kg/ha): 9.0
AMBEL herbicidal rating ([7]; rate 0.0158 kg/ha): 4.0
AMBEL herbicidal rating ([7]; rate 0.0315 kg/ha): 5.0
AMBEL herbicidal rating ([7]; rate 0.0630 kg/ha): 6.0
ECHCG herbicidal rating ([8]; rate 0.0158 kg/ha): 1.0
ECHCG herbicidal rating ([8]; rate 0.0315 kg/ha): 1.0
ECHCG herbicidal rating ([8]; rate 0.0630 kg/ha): 2.0
SETVI herbicidal rating ([9]; rate 0.0158 kg/ha): 1.0
SETVI herbicidal rating ([9]; rate 0.0315 kg/ha): 1.0
SETVI herbicidal rating ([9]; rate 0.0630 kg/ha): 4.0
ABUTH herbicidal rating ([10]; rate 0.0158 kg/ha): 9.0
ABUTH herbicidal rating ([10]; rate 0.0315 kg/ha): 9.0
ABUTH herbicidal rating ([10]; rate 0.0630 kg/ha): 9.0
CHEAL preemergence herbicidal rating ([11]; rate 0.0625 kg/ha): 9.0
CHEAL preemergence herbicidal rating ([11]; rate 0.1250 kg/ha): 9.0
CHEAL preemergence herbicidal rating ([11]; rate 0.2500 kg/ha): 9.0
TRZAWR herbicidal rating ([12]; rate 0.0158 kg/ha): 3.5
TRZAWR herbicidal rating ([12]; rate 0.0315 kg/ha): 4.0
TRZAWR herbicidal rating ([12]; rate 0.0630 kg/ha): 4.0
GALAP preemergence herbicidal rating ([13]; rate 0.0625 kg/ha): 0.0
GALAP preemergence herbicidal rating ([13]; rate 0.1250 kg/ha): 0.0
GALAP preemergence herbicidal rating ([13]; rate 0.2500 kg/ha): 0.0
GLXMAW herbicidal rating ([14]; rate 0.0158 kg/ha): 3.5
GLXMAW herbicidal rating ([14]; rate 0.0315 kg/ha): 4.0
GLXMAW herbicidal rating ([14]; rate 0.0630 kg/ha): 5.5
